Test results from patent publication US20250066386A1, “INHIBITORS OF KRAS” (BIOMEA FUSION, INC., priority 2022, published 2025).
Read-outs that look alike come from different tables or passages of the source.

Legend:
[1] = from CCn1c(-c2cccnc2[C@H](C)OC)c(CC(C)(C)CO)c2cc(-c3cccc(C[C@H](NC(=O)OC(C)(C)C)C(=O)N4CCC[C@@H](C(=O)O)C4)c3)ccc21, ester bond, 18-membered ring, EDCI/HOBT/DIPEA, DCM, 25.0 °C, 16.0 h, 2 steps
[2] = test system: human KRAS G12C mutated cell line MIA PaCa-2; experiment: KRas G12C in vitro inhibitory activity: cell proliferation, CellTiter-Glo; format: cell-based; details: Homo sapiens
Excerpt: The present example evaluates the ability of compounds provided herein to inhibit proliferation of KRAS mutant cells.
The inhibitory effect on cell proliferation was investigated in the human KRAS G12C mutated cell line MIA PaCa-2 (Yunis et al., 1977, Int. J. Cancer 19(1):128-135; ATCC catalog no. CRL-1420). Cells were maintained in RPMI-1640 medium (ThermoFisher catalog no. 61870036) supplemented with 10% of Heat Inactivated FBS (ThermoFisher catalog no. A31605) and 1% Pen-Strep (ThermoFisher catalog no. 10378016) and cultured at 37° C. in a humidified incubator with 5% CO2. Cells were grown by adhering to culture flasks, and maintained at 70%-80% confluency.
ATP is present in all metabolically active cells and is considered as a marker for viable cells. The number of metabolically active live cells in culture was determined using the CellTiter-Glo kit (Promega catalog no. G7572), an ATP monitoring system based on the production of luminescence by the reaction of ATP with added UltraGlo® recombinant luciferase (Kawano et al., 2016, PLOS One, 8; 11(7):e0158888), according to the supplier's experimental recommendations. The cell proliferation assay was based on a 96 well plate format.
Test compounds were dissolved at 10 mM in DMSO (Sigma catalog no. D8418; purity >99.9%) and stored at −20° C. Eight concentrations of test compound were assessed in duplicate in an individual test occasion in parallel in the selected cell lines. MRTX-849 and AMG-510 were used as reference compounds and tested in duplicate at eight concentrations. 100% of proliferation is represented by the untreated cells (0.2% DMSO).
On the day of the experiment (TO), cells were detached with TrypLE (ThermoFisher catalog no. 12604054), quantified using the cell viability analyser NucleoCounter (Chemometec NC-200) and resuspended in fresh medium at a cell density of about 5000 cells per 200 μL medium. 200 μL of cell suspension were added to each well of a 96 well plate.
Two hours after seeding cells, compounds were added at desired concentrations using a D300e compound dispenser (Life Sciences Tecan D300) with shaking after each compound addition. Assay plates were incubated at 37° C. in a humidified incubator with 5% CO2.
(§1) To measure 3 day inhibition of cell proliferation on day 3 (T3), assay plates were equilibrated to room temperature for approximately 15 min, and the Promega CellTiterGlo® reagent was added at 40 μL/well. Contents were mixed for 5 min on an orbital shaker to induce cell lysis, and then incubated at room temperature for an additional 10 min in the dark to stabilize the luminescent signal. Luminescence was read using a GloMax GM300 plate reader (Promega) using the luminescence for 96 well plate standard protocol.
as §1, with “measure 7” for “measure 3”, “(T3), 150 μL of growth media was removed from each well of the assay plates and replaced with 150 uL fresh growth media, and fresh compounds added using a D300e compound dispenser (Life Sciences Tecan D300) at desired concentrations with shaking between each compound addition. Assay plates were incubated at 37° C. in a humidified incubator with 5% CO2. On day 7 (T7)” for “(T3),”
Data was expressed as % of inhibition compared to the 0.2% DMSO negative no drug control, and is calculated as follows: % inhibition=100−[(RLU sample)×100/(RLU average controls*)], where * indicates the average for 0.2% DMSO.
Results were analyzed by GraphPad (Prism) and IC50 values were calculated by non-linear regression using four parameter-logistic equation. […]

[3] = MIA PaCa-2, 72 h, 3 day inhibition of cell proliferation, CellTiter-Glo luminescence, read-out: MIA PaCa-2 Day 3 IC50
[4] = MIA PaCa-2, 7 day inhibition of cell proliferation, medium and compound renewed on day 3, CellTiter-Glo luminescence, read-out: MIA PaCa-2 Day 7 IC50

Row | Structure (SMILES) | ring closure, isolated yield ([1]; 9.6 mM) [%] | ring closure, isolated yield ([1]; 9.9 mM) [%] | IC50 [2, 3] [nM] | IC50 [2, 4] [nM]
1 | CCn1c(-c2cccnc2[C@H](C)OC)c2c3cc(ccc31)-c1cccc(c1)C[C@H](NC(=O)OC(C)(C)C)C(=O)N1CCC[C@H](C1)C(=O)OCC(C)(C)C2 | 62 | 56 | – | –
2 | CCn1c(-c2cccnc2[C@H](C)OC)c2c3cc(ccc31)-c1csc(n1)C[C@H](NC(=O)[C@H](C(C)C)N(C)C(=O)[C@H]1CCN(CC#CC(=O)N3CCC3)C1)C(=O)N1CCC[C@H](N1)C(=O)OCC(C)(C)C2 (atropisomer, axis not shown) [Compound 116, (3S)-1-(4-(azetidin-1-yl)-4-oxobut-2-yn-1-yl)-N-((2S)-1-(((6^3S,4S,Z)-1^1-ethyl-1^2-(2-((S)-1-methoxyethyl)pyridin-3-yl)-10,10-dimethyl-5,7-dioxo-6^1,6^2,6^3,6^4,6^5,6^6-hexahydro-1^1H-8-oxa-2(4,2)-thiazola-1(5,3)-indola-6(1,3)-pyridazinacycloundecaphane-4-yl)amino)-3-methyl-1-oxobutan-2-yl)-N-methylpyrrolidine-3-carboxamide] | – | – | > 100 | 1 to 10
3 | CCn1c(-c2cccnc2[C@H](C)OC)c2c3cc(ccc31)-c1csc(n1)C[C@H](NC(=O)[C@H](C(C)C)N(C)C(=O)[C@H]1CCN(CC#CC(=O)N3CC(F)(F)C3)C1)C(=O)N1CCC[C@H](N1)C(=O)OCC(C)(C)C2 (atropisomer, axis not shown) [Compound 117, (3S)-1-(4-(3,3-difluoroazetidin-1-yl)-4-oxobut-2-yn-1-yl)-N-((2S)-1-(((6^3S,4S,Z)-1^1-ethyl-1^2-(2-((S)-1-methoxyethyl)pyridin-3-yl)-10,10-dimethyl-5,7-dioxo-6^1,6^2,6^3,6^4,6^5,6^6-hexahydro-1^1H-8-oxa-2(4,2)-thiazola-1(5,3)-indola-6(1,3)-pyridazinacycloundecaphane-4-yl)amino)-3-methyl-1-oxobutan-2-yl)-N-methylpyrrolidine-3-carboxamide] | – | – | > 100 | 1 to 10
4 | CCn1c(-c2cccnc2[C@H](C)OC)c2c3cc(ccc31)-c1csc(n1)C[C@H](NC(=O)[C@H](C(C)C)N(C)C(=O)[C@H]1CCN(CC#CC(=O)N3CC(F)C3)C1)C(=O)N1CCC[C@H](N1)C(=O)OCC(C)(C)C2 (atropisomer, axis not shown) [Compound 118, (3S)—N-((2S)-1-(((6^3S,4S,Z)-1^1-ethyl-1^2-(2-((S)-1-methoxyethyl)pyridin-3-yl)-10,10-dimethyl-5,7-dioxo-6^1,6^2,6^3,6^4,6^5,6^6-hexahydro-1^1H-8-oxa-2(4,2)-thiazola-1(5,3)-indola-6(1,3)-pyridazinacycloundecaphane-4-yl)amino)-3-methyl-1-oxobutan-2-yl)-1-(4-(3-fluoroazetidin-1-yl)-4-oxobut-2-yn-1-yl)-N-methylpyrrolidine-3-carboxamide] | – | – | > 100 | 1 to 10
5 | C=CC(=O)N1CC[C@H](C(=O)N(C)[C@H](C(=O)N[C@H]2Cc3cccc(c3)-c3ccc4c(c3)c(c(-c3cccnc3[C@H](C)OC)n4CC)CC(C)(C)n3cc(nn3)[C@@H]3CCCN(N3)C2=O)C(C)C)C1 [Compound 104, (3S)-1-acryloyl-N-((2S)-1-(((6^3S,8S,Z)-21-ethyl-2^2-(2-((S)-1-methoxyethyl)pyridin-3-yl)-4,4-dimethyl-7-oxo-6^1,6^2,6^3,6^4,6^5,6^6-hexahydro-2^1H,5^1H-2(5,3)-indola-6(3,1)-pyridazina-5(1,4)-triazola-1(1,3)-benzenacyclononaphane-8-yl)amino)-3-methyl-1-oxobutan-2-yl)-N-methylpyrrolidine-3-carboxamide] | – | – | > 100 | –
6 | CCn1c(-c2cccnc2[C@H](C)OC)c2c3cc(ccc31)-c1csc(n1)C[C@H](NC(=O)[C@H](C(C)C)N(C)C(=O)N1[C@H](C)CN(CC#CC(=O)N(C)C)C[C@H]1C)C(=O)N1CCC[C@H](N1)C(=O)OCC(C)(C)C2 [Compound 105, (2R,6R)-4-(4-(dimethylamino)-4-oxobut-2-yn-1-yl)-N-((2S)-1-(((6^3S,4S,Z)-1^1-ethyl-1^2-(2-((S)-1-methoxyethyl)pyridin-3-yl)-10,10-dimethyl-5,7-dioxo-6^1,6^2,6^3,6^4,6^5,6^6-hexahydro-1^1H-8-oxa-2(4,2)-thiazola-1(5,3)-indola-6(1,3)-pyridazinacycloundecaphane-4-yl)amino)-3-methyl-1-oxobutan-2-yl)-N,2,6-trimethylpiperazine-1-carboxamide] | – | – | 10 to 100 | 10 to 100
7 | CCn1c(-c2cccnc2[C@H](C)OC)c2c3cc(ccc31)-c1cccc(c1)C[C@H](NC(=O)[C@H](C(C)C)N(C)C(=O)[C@H]1CCN(C(=O)C#CCN3CCOCC3)C1)C(=O)N1CCC[C@@H](CC(=O)OC(C)(C)C2)C1 [Compound 106, (3S)—N-((2S)-1-(((6^3S,4S)-1^1-ethyl-1^2-(2-((S)-1-methoxyethyl)pyridin-3-yl)-10,10-dimethyl-5,8-dioxo-1^1H-9-oxa-1(5,3)-indola-6(1,3)-piperidina-2(1,3)-benzenacycloundecaphane-4-yl)amino)-3-methyl-1-oxobutan-2-yl)-N-methyl-1-(4-morpholinobut-2-ynoyl)pyrrolidine-3-carboxamide] | – | – | > 100 | –
8 | CCn1c(-c2cccnc2[C@H](C)OC)c2c3cc(ccc31)-c1cccc(c1)C[C@H](NC(=O)[C@H](C(C)C)N(C)C(=O)[C@H]1CCN(C(=O)C#CCN3CCOCC3)C1)C(=O)N1CCC[C@@H](CC(=O)OC(C)(C)C2)C1 [Compound 107] | – | – | – | > 100
9 | CCn1c(-c2cccnc2[C@H](C)OC)c2c3cc(ccc31)-c1cccc(c1)C[C@H](NC(=O)[C@H](C(C)C)N(C)C(=O)[C@H]1CCN(C(=O)C#CCN3CCOCC3)C1)C(=O)N1CCC[C@H](CC(=O)OC(C)(C)C2)C1 [Compound 108, (3S)—N-((2S)-1-(((6^3R,4S)-1^1-ethyl-1^2-(2-((S)-1-methoxyethyl)pyridin-3-yl)-10,10-dimethyl-5,8-dioxo-1^1H-9-oxa-1(5,3)-indola-6(1,3)-piperidina-2(1,3)-benzenacycloundecaphane-4-yl)amino)-3-methyl-1-oxobutan-2-yl)-N-methyl-1-(4-morpholinobut-2-ynoyl)pyrrolidine-3-carboxamide] | – | – | > 100 | –
10 | CCn1c(-c2cccnc2[C@H](C)OC)c2c3cc(ccc31)-c1csc(n1)C[C@H](NC(=O)[C@H](C(C)C)N(C)C(=O)[C@H]1CCN(C(C)C#CC(=O)N(C)C)C1)C(=O)N1CCC[C@H](N1)C(=O)OCC(C)(C)C2 (stereo partly drawn) [Compound 114, (3S)-1-(5-(dimethylamino)-5-oxopent-3-yn-2-yl)-N-((2S)-1-(((63S,4S,Z)-1^1-ethyl-1^2-(2-((S)-1-methoxyethyl)pyridin-3-yl)-10,10-dimethyl-5,7-dioxo-6^1,6^2,6^3,6^4,6^5,6^6-hexahydro-11H-8-oxa-2(4,2)-thiazola-1(5,3)-indola-6(1,3)-pyridazinacycloundecaphane-4-yl)amino)-3-methyl-1-oxobutan-2-yl)-N-methylpyrrolidine-3-carboxamide] | – | – | < 1 | –
